Results on 19 molecules are retold here after patent US7001921B1, “Cell adhesion inhibitors” (Biogen Idec MA Inc., priority 1995, dated 2006).

Bounds are passed on as bounds.

The target in this experiment is T1, VLA4 (Homo sapiens, UniProt P05556+P13612).
T1 construct: endogenous in cells; host or cells: Ramos cells
T1 sequence (P13612 34-1032): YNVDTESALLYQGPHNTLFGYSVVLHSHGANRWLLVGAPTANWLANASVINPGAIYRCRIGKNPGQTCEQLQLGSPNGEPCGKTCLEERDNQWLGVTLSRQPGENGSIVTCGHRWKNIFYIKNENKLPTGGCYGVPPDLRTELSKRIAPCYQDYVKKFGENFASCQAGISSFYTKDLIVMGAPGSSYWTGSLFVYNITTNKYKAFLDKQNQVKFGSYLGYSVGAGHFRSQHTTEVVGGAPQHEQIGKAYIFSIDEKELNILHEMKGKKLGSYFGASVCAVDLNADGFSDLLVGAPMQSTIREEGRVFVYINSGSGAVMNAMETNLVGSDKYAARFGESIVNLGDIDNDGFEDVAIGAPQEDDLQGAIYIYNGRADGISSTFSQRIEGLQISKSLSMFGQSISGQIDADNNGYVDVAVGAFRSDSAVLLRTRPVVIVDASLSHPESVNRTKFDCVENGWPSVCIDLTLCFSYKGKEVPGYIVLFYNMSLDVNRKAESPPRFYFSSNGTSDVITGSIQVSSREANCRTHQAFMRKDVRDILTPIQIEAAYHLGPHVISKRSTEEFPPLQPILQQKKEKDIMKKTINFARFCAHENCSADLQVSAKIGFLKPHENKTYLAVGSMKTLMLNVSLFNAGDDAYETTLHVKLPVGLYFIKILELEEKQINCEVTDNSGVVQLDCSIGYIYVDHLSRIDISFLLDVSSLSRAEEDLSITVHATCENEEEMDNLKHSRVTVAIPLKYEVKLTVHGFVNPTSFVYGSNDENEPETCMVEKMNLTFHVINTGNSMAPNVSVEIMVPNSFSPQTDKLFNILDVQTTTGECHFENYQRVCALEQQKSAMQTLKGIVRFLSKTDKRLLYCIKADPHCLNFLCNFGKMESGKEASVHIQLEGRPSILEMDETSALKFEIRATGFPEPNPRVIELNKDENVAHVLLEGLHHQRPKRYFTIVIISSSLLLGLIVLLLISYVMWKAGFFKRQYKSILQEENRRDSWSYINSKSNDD
T1 sequence (P05556 21-798): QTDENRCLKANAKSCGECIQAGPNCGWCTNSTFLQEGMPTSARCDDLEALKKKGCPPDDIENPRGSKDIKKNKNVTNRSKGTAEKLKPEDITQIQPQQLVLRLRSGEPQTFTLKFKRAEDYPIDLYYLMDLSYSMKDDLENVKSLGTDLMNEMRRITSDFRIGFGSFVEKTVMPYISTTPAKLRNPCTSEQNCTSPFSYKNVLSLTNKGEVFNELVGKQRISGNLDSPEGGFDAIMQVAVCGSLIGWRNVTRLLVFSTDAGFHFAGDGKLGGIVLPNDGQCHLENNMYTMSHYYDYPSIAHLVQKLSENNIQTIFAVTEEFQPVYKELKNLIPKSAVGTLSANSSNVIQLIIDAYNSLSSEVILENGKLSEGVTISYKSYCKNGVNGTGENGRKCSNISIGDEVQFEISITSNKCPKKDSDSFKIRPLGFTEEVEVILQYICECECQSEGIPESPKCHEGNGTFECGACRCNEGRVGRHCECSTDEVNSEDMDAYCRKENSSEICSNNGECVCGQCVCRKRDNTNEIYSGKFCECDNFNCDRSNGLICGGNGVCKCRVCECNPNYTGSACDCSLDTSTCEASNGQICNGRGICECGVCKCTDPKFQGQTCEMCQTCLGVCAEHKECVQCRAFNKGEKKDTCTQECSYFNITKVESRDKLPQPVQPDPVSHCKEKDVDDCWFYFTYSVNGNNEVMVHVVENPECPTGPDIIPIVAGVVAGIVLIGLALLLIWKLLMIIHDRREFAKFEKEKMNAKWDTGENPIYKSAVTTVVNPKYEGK
As to the kind of experiment: Inhibition of VLA4-dependent adhesion to BSA-CS1 (labelled Ramos cells). The class given is cell-based. Particulars: binding of BCECF-AM labelled Ramos cells to CS1 peptide-coated wells, 2 mM MnCl2, 30 minutes at room temperature; IC50 range. In outline: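 Ramos cells labelled with 2 μM BCECF-AM, with 2 mM MnCl2 added to upregulate VLA4, were incubated with test compound (final 0.01 nM–10 μM, triplicate) on BSA-CS1-coated wells for 30 min at room temperature in TRIS buffer pH 7.4. After washing, bound fluorescence was read, with uncoated wells giving non-specific binding.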
What is called IC50 is the concentration at which inhibition is half-maximal. Read a low IC50 as inhibition by little substance. As to `O=C(O)CC(NC(=O)C(CCC(=O)N1CCOCC1)NC(=O)Cc1ccc(NC(=O)Nc2ccccc2)cc1)c1ccc2c(c1)OCO2` (stereo not shown) [compound 1216], the IC50 lay within 50 to 10000 nM. As for `COc1ccc(C(CC(=O)O)NC(=O)C(CCCCNC(=O)OCc2ccccc2)NC(=O)Cc2ccc(NC(=O)Nc3ccccc3C)cc2)cc1OC` (stereo not shown) [compound 1217], the figure is < 50 nM. Then `COc1ccc(C(CC(=O)O)NC(=O)C(CC(C)C)NC(=O)Cc2ccc(NC(=O)Nc3ccccn3)cc2)cc1OC` (stereo not shown) [compound 1218], with 50 to 10000 nM; and `COc1ccc(C(CC(=O)O)NC(=O)C(CC(C)C)NC(=O)Cc2ccc(NC(=O)Nc3cccnc3)cc2)cc1OC` (stereo not shown) [compound 1219], with 50 to 10000 nM. As for `COc1ccc(C(CC(=O)O)NC(=O)C(CC(C)C)NC(=O)Cc2ccc(NC(=O)Nc3cccnc3C)cc2)cc1` (stereo not shown) [compound 1220], the figure is 50 to 10000 nM; as for `COc1cc(CC(=O)NC(CC(C)C)C(=O)NC(CC(=O)O)c2ccc3c(c2)OCO3)ccc1NC(=O)Nc1ccccc1C` (stereo not shown) [compound 1221], < 50 nM; as for `COc1cc(CC(=O)NC(CC(C)C)C(=O)NC(CC(=O)O)c2ccc3c(c2)OCO3)ccc1NC(=O)Nc1ccccc1Cl` (stereo not shown) [compound 1222], < 50 nM. For the molecule `COc1ccc(C(CC(=O)O)NC(=O)C(CCSC)NC(=O)Cc2ccc(NC(=O)Nc3ccccc3C)cc2)cc1OC` (stereo not shown) [compound 1224], the IC50 is < 50 nM.

`COc1ccc(C(CC(=O)O)NC(=O)C(CCSC)NC(=O)Cc2ccc(NC(=O)Nc3ccccc3C)cc2)cc1` (stereo not shown) [compound 1238]: the IC50 was < 50 nM. Then `Cc1ccccc1NC(=O)Nc1ccc(CC(=O)NC(CCS(C)(=O)=O)C(=O)NC(CC(=O)O)c2ccc3c(c2)OCO3)cc1` (stereo not shown) [compound 1245], with < 50 nM; and `Cc1ccccc1NC(=O)Nc1ccc(CC(=O)NC(CC(C)C)C(=O)NC(CC(=O)O)c2ccc(F)cc2)cc1` (stereo not shown) [compound 1248], with < 50 nM; and `CC(=O)NCCCCC(NC(=O)Cc1ccc(NC(=O)Nc2ccccc2C)cc1)C(=O)NC(CC(=O)O)c1ccc2c(c1)OCO2` (stereo not shown) [compound 1270], with < 50 nM. Then `Cc1ccccc1NC(=O)Nc1ccc(CC(=O)NC(CC(C)C)C(=O)NC(CC(=O)O)c2ccc3c(c2)OCO3)cc1` (stereo not shown) [compound 1282], with < 50 nM; and `Cc1ccccc1NC(=O)Nc1ccc(CC(=O)NC(CCCCNS(C)(=O)=O)C(=O)NC(CC(=O)O)c2ccc3c(c2)OCO3)cc1` (stereo not shown) [compound 1294], with < 50 nM; and `Cc1ccccc1NC(=O)Nc1ccc(CC(=O)NC(CC(C)C)C(=O)NC(CC(=O)O)c2ccc(C(=O)O)cc2)cc1` (stereo not shown) [compound 1321], with < 50 nM. As for `COc1nc(CC(=O)NC(CC(C)C)C(=O)NC(CC(=O)O)c2ccc3c(c2)OCO3)ccc1NC(=O)Nc1ccccc1C` (stereo not shown) [compound 1336], the figure is < 50 nM; as for `CN=C(Nc1ccccc1)Nc1ccc(CC(=O)NC(CC(C)C)C(=O)NC(CC(=O)O)c2ccc3c(c2)OCO3)cc1` (stereo not shown) [compound 1380], 50 to 10000 nM. As to `COC(=O)c1ccc(C(CC(=O)O)NC(=O)C(CCCCNS(C)(=O)=O)NC(=O)Cc2ccc(NC(=O)Nc3ccccc3C)cc2)cc1` (stereo not shown) [compound 1382], the IC50 is < 50 nM.

In turn, `CC(C)CC(NC(=O)Cc1ccc(Nc2ncc[nH]2)cc1)C(=O)NC(CC(=O)O)c1ccc2c(c1)OCO2` (stereo not shown) [compound 1390] came in with a 50% inhibitory concentration (IC50) of 50 to 10000 nM.
